Results reported in patent US7109218B2, “Substituted 2-thio-3,5-dicyano-4-phenyl-6-aminopyridines and the use of the same” (Bayer HealthCare AG, priority 2001, dated 2006).
Read-outs that look alike come from different tables or passages of the source.

Legend:
[1] = Pharmacokinetic investigation, oral bioavailability in rats; assay type: in vivo; conditions: plasma, Rat, at 3 mg/kg p.o., read-out: Bioavailability following oral administration
Method: (§1) Pharmacokinetic data were determined after administering various substances i.v. or p.o. as solutions to mice, rats and dogs. For this, blood samples were collected up to 24 hours after administration. The concentrations of the unaltered substance were determined by bioanalytical methods (HPLC or HPLC-MS) in the plasma samples which were obtained from the blood samples. Pharmacokinetic parameters were subsequently ascertained from the plasma concentration time courses which had been obtained in this way. The following Table 2 gives the bioavailability in the different species.

heart = test: Cardiovascular effect: heart rate of isolated rat heart in Langerdorff apparatus; conditions: isolated perfused rat heart
Method: After the thorax has been opened, the heart is rapidly removed from anaesthetized rats and introduced into a conventional Langerdorff apparatus. The coronary arteries are perfused at constant volume (10 ml/min), and the resulting perfusion pressure is recorded by way of an appropriate pressure sensor. In this set-up, a decrease in the perfusion pressure corresponds to a relaxation of the coronary arteries. At the same time, the pressure which the heart develops during each contraction is measured by way of a balloon, which has been introduced into the left ventricle, and a second pressure sensor. The frequency of the heart, which is beating in isolation, is calculated from the number of contractions per time unit.
In this experimental set-up, the following values were obtained for the reduction in heart rate (the stated percentage refers to the reduction of the heart rate in per cent at the concentration in question): […]

[2] = Pharmacokinetic investigation, oral bioavailability in dogs; assay type: in vivo; conditions: plasma, Dog, read-out: Bioavailability following oral administration
Method: as §1

[3] = Pharmacokinetic investigation, oral bioavailability in mice; assay type: in vivo; conditions: plasma, Mouse, read-out: Bioavailability following oral administration
Method: as §1

adenosine A2b receptor = biological target: T1, adenosine A2b receptor (Homo sapiens, UniProt P29275); test: Adenosine agonism indirectly by gene expression (luciferase, cAMP-dependent promoter) in transfected CHO cells, A2b; assay type: cell-based; conditions: read-out: Stimulation of adenosine A2b receptor (% of the maximum stimulation achieved by NECA)
T1 construct: expressed in transfected cells; host or cells: CHO (Chinese Hamster Ovary)
T1 sequence (P29275 1-332): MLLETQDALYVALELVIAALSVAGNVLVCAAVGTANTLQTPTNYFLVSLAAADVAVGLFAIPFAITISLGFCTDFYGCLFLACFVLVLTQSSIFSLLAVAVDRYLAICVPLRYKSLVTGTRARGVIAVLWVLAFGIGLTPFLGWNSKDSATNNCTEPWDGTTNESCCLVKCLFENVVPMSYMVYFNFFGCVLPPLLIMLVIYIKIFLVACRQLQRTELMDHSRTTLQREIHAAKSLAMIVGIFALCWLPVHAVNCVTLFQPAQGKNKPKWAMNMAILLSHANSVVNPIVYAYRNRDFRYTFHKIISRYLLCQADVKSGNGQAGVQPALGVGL
From the text: (§2) Cells of the CHO (Chinese Hamster Ovary) permanent cell line are transfected stably with the cDNA for the adenosine receptor subtypes A1, A2a and A2b. The adenosine A1 receptors are coupled to the adenylate cyclase by way of Gi proteins, while the adenosine A2a and A2b receptors are coupled by way of Gs proteins. In correspondence with this, the formation of cAMP in the cell is inhibited or stimulated, respectively. After that, expression of the luciferase is modulated by way of a cAMP-dependent promoter. The luciferase test is optimized, with the aim of high sensitivity and reproducibility, low variance and good suitability for implementation on a robot system, by varying several test parameters, such as cell density, duration of the growth phase and the test incubation, forskolin concentration and medium composition. The following test protocol is used for pharmacologically characterizing cells and for the robot-assisted substance test screening.
(§3) The stock cultures are grown, at 37° C. and under 5% CO2, in DMEM/F12 medium containing 10% FCS (foetal calf serum) and in each case split 1:10 after 2–3 days. The test cultures are seeded in 384-well plates at the rate of from 1 000 to 3 000 cells per well and grown at 37° C. for approx. 48 hours. The medium is then replaced with a physiological sodium chloride solution (130 mM sodium chloride, 5 mM potassium chloride, 2 mM calcium chloride, 20 mM HEPES, 1 mM magnesium chloride 6H2O, 5 mM NaHCO3, pH 7.4). The substances, which are dissolved in DMSO, are diluted 1:10 three times with this physiological sodium chloride solution and pipetted into the test cultures (maximum final concentration of DMSO in the test mixture: 0.5%). In this way, final substance concentrations of, for example, from 5 μM to 5 nM are obtained. 10 minutes later, forskolin is added to the A1 cells and all the cultures are subsequently incubated at 37° C. for four hours. After that, 35 μl of a solution which is composed of 50% lysis reagent (30 mM disodium hydrogenphosphate, 10% glycerol, 3% TritonX100, 25 mM TrisHCl, 2 mM dithiothreitol (DTT), pH 7.8) and 50% luciferase substrate solution (2.5 mM ATP, 0.5 mM luciferin, 0.1 mM coenzyme A, 10 mM tricine, 1.35 mM magnesium sulphate, 15 mM DTT, pH 7.8) are added to the test cultures, the plates are shaken for approx. 1 minute and the luciferase activity is measured using a camera system.
(§4) The table gives the % values of the corresponding reference stimulus. The measured values for the A2a and A2b receptors are values in per cent of the maximum stimulation achieved by NECA; the measured values for the A1 receptor are values in per cent following direct prestimulation of the adenylate cyclase with 1 μmolar forskolin (corresponds to the 100% value).

adenosine A1 receptor = biological target: T2, adenosine A1 receptor (Homo sapiens, UniProt P30542); test: Adenosine agonism indirectly by gene expression (luciferase, cAMP-dependent promoter) in transfected CHO cells, A1; assay type: cell-based; conditions: 1 μmolar forskolin = 100%, agonists give less than 100%
T2 construct: expressed in transfected cells; host or cells: CHO (Chinese Hamster Ovary)
T2 sequence (P30542 1-326): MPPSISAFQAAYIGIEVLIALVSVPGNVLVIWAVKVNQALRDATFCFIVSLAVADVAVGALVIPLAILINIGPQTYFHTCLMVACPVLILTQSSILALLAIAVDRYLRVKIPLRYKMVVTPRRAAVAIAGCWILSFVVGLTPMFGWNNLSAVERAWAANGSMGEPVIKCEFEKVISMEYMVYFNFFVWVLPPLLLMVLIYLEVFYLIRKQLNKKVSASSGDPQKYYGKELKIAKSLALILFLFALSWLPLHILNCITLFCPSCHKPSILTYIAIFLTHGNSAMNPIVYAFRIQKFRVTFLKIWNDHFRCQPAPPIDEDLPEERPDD
From the text: as §2, §3, §4

adenosine A2a receptor = biological target: T3, adenosine A2a receptor (Homo sapiens, UniProt P29274); test: Adenosine agonism indirectly by gene expression (luciferase, cAMP-dependent promoter) in transfected CHO cells, A2a; assay type: cell-based; conditions: read-out: Stimulation of adenosine A2a receptor (% of the maximum stimulation achieved by NECA)
T3 construct: expressed in transfected cells; host or cells: CHO (Chinese Hamster Ovary)
T3 sequence (P29274 whole entry): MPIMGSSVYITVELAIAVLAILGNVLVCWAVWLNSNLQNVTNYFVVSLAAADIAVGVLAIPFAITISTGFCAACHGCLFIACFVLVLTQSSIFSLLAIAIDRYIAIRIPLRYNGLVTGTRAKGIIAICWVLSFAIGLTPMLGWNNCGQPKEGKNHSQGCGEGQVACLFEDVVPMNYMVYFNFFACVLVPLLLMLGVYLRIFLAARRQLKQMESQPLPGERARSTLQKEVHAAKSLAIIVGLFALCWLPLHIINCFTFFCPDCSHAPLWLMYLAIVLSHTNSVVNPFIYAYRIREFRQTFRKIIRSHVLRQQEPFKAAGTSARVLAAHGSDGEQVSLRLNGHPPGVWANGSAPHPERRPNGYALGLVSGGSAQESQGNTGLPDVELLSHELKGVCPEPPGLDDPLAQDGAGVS
From the text: as §2, §3, §4

[4] = at a concentration of 10^−6 g/ml
[5] = at a concentration of 10^−7 g/ml

Row | Structure (SMILES) | bioavailability [1] [%] | Reduction of the heart rate in percent (heart; [4]) [%] | Reduction of the heart rate in percent (heart; [5]) [%] | bioavailability ([2]; at 1 mg/kg p.o.) [%] | bioavailability ([3]; at 3 mg/kg p.o.) [%] | Emax (adenosine A2b receptor; 0.3 nmol) [%] | Emax (adenosine A2b receptor; 1 nmol) [%] | Emax (adenosine A2b receptor; 10 nmol) [%] | Stimulation of adenosine A1 receptor (luciferase activity in % of forskolin prestimulation) (adenosine A1 receptor; 0.3 nmol) [%] | Stimulation of adenosine A1 receptor (luciferase activity in % of forskolin prestimulation) (adenosine A1 receptor; 1 nmol) [%] | Stimulation of adenosine A1 receptor (luciferase activity in % of forskolin prestimulation) (adenosine A1 receptor; 10 nmol) [%] | Emax (adenosine A2a receptor; 0.3 nmol) [%] | Emax (adenosine A2a receptor; 1 nmol) [%] | Emax (adenosine A2a receptor; 10 nmol) [%] | bioavailability ([2]; at 3 mg/kg p.o.) [%] | bioavailability ([3]; at 1 mg/kg p.o.) [%]
1 | N#Cc1c(N)nc(SCc2csc(-c3ccc(Cl)cc3)n2)c(C#N)c1-c1ccc(OCCO)cc1 [Example 6, 2-Amino-6-({[2-(4-chlorophenyl)-1,3-thiazol-4-yl]methyl}sulphanyl)-4-[4-(2-hydroxyethoxy)phenyl]pyridine-3,5-dicarbonitrile] | 42.3 | 20.0 | 15.5 | 28.5 | 41.3 | 0 | 3 | 29 | 45 | 25 | 7 | 0 | 4 | 2 |  | 
2 | COCCOc1ccc(-c2c(C#N)c(N)nc(SCc3cccnc3)c2C#N)cc1 [Example 1, 2-Amino-4-[4-(2-methoxyethoxy)phenyl]-6-[(3-pyridinylmethyl)sulphanyl]pyridine-3,5-dicarbonitrile] | 5 | 17.5 | 15.0 |  |  | 2 | 6 | 8 | 56 | 11 | 4 | -1 | 2 | -2 | 32.6 | 31.5
